This passage reports inhibition results from patent US20230172201A1, “Use of 4-Phenylbutyric Acid and/or 3-Phenylbutyric Acid and/or 2-Phenylbutyric Acid in Preventing and Treating Cryptogamic Diseases” (Institut National de Recherche Pour L'Agriculture, …, priority 2020, published 2023).

In the assay the test system is Botrytis cinerea (BMM strain). The assay can be described thus: Mycelial development in liquid medium, absorbance at 600 nm (nephelometry). It counts as cell-based. Particulars: Botrytis cinerea, 96 h; 1 mM; incubation for 4 days; Example 4; read-out: degree of inhibition.

In the case of `CCC(C(=O)O)c1ccccc1` (stereo not shown) [2-PBA, 2-Phenylbutyric acid], the inhibition at 1000 µM is approximately 70%.

A word on the inhibition: it is the relative decrease from the control value, in per cent.
